Columns and labels:
[1] = tested on: Felis catus; assay: Effect of intraperitoneal infusion on systolic pressure in Anesthetized cats at a dose of 200 mg/kg at 90 min; assay type: functional
[2] = tested on: Felis catus; assay: Effect of intravenous infusion on systolic pressure in Anesthetized cats at a dose of 0 mg/kg at 0 min; assay type: functional
[3] = tested on: Felis catus; assay: Effect of intraperitoneal infusion on diastolic pressure in Anesthetized cats at a dose of 200 mg/kg at 120 min; assay type: functional
[4] = tested on: Felis catus; assay: Effect of intraperitoneal infusion on diastolic pressure in Anesthetized cats at a dose of 200 mg/kg at 135 min; assay type: functional
[5] = tested on: Felis catus; assay: Effect of intraperitoneal infusion on diastolic pressure in Anesthetized cats at a dose of 200 mg/kg at 30 min; assay type: functional
[6] = tested on: Felis catus; assay: Effect of intraperitoneal infusion on diastolic pressure in Anesthetized cats at a dose of 200 mg/kg at 75 min; assay type: functional
[7] = tested on: Felis catus; assay: Effect of intravenous infusion on systolic pressure in Anesthetized cats at a dose of 1.50 mg/kg at 10 min; assay type: functional; conditions: dose 1.5 mg/kg
[8] = tested on: Felis catus; assay: Effect of intravenous infusion on diastolic pressure in Anesthetized cats at a dose of 0.15 mg/kg at 1 min; assay type: functional
[9] = tested on: Felis catus; assay: Effect of intravenous infusion on diastolic pressure in Anesthetized cats at a dose of 2.25 mg/kg at 15 min; assay type: functional
[10] = tested on: Felis catus; assay: Effect of intravenous infusion on systolic pressure in Anesthetized cats at a dose of 2.25 mg/kg at 15 min; assay type: functional
[11] = tested on: Felis catus; assay: Effect of intraperitoneal infusion on systolic pressure in Anesthetized cats at a dose of 200 mg/kg at 120 min; assay type: functional
[12] = tested on: Felis catus; assay: Effect of intraperitoneal infusion on systolic pressure in Anesthetized cats at a dose of 200 mg/kg at 150 min; assay type: functional
[13] = tested on: Felis catus; assay: Effect of intraperitoneal infusion on systolic pressure in Anesthetized cats at a dose of 200 mg/kg at 15 min; assay type: functional
[14] = tested on: Felis catus; assay: Effect of intraperitoneal infusion on systolic pressure in Anesthetized cats at a dose of 200 mg/kg at 30 min; assay type: functional
[15] = tested on: Felis catus; assay: Effect of intraperitoneal infusion on systolic pressure in Anesthetized cats at a dose of 200 mg/kg at 60 min; assay type: functional
[16] = tested on: Felis catus; assay: Effect of intravenous infusion on respiration frequency in Anesthetized cats at a dose of 0.15 mg/kg at 1 min; assay type: functional
[17] = tested on: Felis catus; assay: Effect of intravenous infusion on respiration frequency in Anesthetized cats at a dose of 0.30 mg/kg at 2 min; assay type: functional; conditions: dose 0.3 mg/kg
[18] = tested on: Felis catus; assay: Effect of intravenous infusion on respiration frequency in Anesthetized cats at a dose of 1.50 mg/kg at 10 min; assay type: functional; conditions: dose 1.5 mg/kg
[19] = tested on: Felis catus; assay: Effect on respiration frequency in Anesthetized cats at a dose of 2.25 mg/kg at 15 min; assay type: functional
[20] = tested on: Felis catus; assay: Effect of intraperitoneal infusion of compound on cardiac frequency in Anesthetized cats at a dose of 200 mg/kg at 105 min; assay type: functional, Heart
[21] = tested on: Felis catus; assay: Effect of intraperitoneal infusion of compound on cardiac frequency in Anesthetized cats at a dose of 200 mg/kg at 30 min; assay type: functional, Heart
[22] = tested on: Felis catus; assay: Effect of intraperitoneal infusion of compound on cardiac frequency in Anesthetized cats at a dose of 200 mg/kg at 75 min; assay type: functional, Heart
[23] = tested on: Felis catus; assay: Effect of intravenous infusion on cardiac frequency in Anesthetized cats at a dose of 0.15 mg/kg at 1 min; assay type: functional, Heart
[24] = tested on: Felis catus; assay: Effect of intravenous infusion on cardiac frequency in Anesthetized cats at a dose of 0.30 mg/kg at 2 min; assay type: functional, Heart; conditions: dose 0.3 mg/kg
[25] = tested on: Felis catus; assay: Effect of intravenous infusion on cardiac frequency in Anesthetized cats at a dose of 0.75 mg/kg at 5 min; assay type: functional, Heart
[26] = tested on: Felis catus; assay: Effect of intravenous infusion on cardiac frequency in Anesthetized cats at a dose of 1.50 mg/kg at 10 min; assay type: functional, Heart; conditions: dose 1.5 mg/kg
[27] = tested on: Felis catus; assay: Effect of intravenous infusion on cardiac frequency in Anesthetized cats at a dose of 3 mg/kg at 20 min; assay type: functional, Heart
[28] = tested on: Felis catus; assay: Effect on cardiac frequency in Anesthetized cats at a dose of 2.25 mg/kg at 15 min; assay type: functional, Heart
[29] = tested on: Felis catus; assay: Effect of intraperitoneal infusion on respiration frequency in Anesthetized cats at a dose of 200 mg/kg at 105 min; assay type: functional
[30] = tested on: Felis catus; assay: Effect of intraperitoneal infusion on respiration frequency in Anesthetized cats at a dose of 200 mg/kg at 135 min; assay type: functional
[31] = tested on: Felis catus; assay: Effect of intraperitoneal infusion on respiration frequency in Anesthetized cats at a dose of 200 mg/kg at 150 min; assay type: functional
[32] = tested on: Felis catus; assay: Effect of intraperitoneal infusion on diastolic pressure in Anesthetized cats at a dose of 200 mg/kg at 0 min; assay type: functional
[33] = tested on: Felis catus; assay: Effect of intraperitoneal infusion on diastolic pressure in Anesthetized cats at a dose of 200 mg/kg at 105 min; assay type: functional
[34] = tested on: Felis catus; assay: Effect of intraperitoneal infusion on respiration frequency in Anesthetized cats at a dose of 200 mg/kg at 60 min; assay type: functional
[35] = tested on: Felis catus; assay: Effect of intraperitoneal infusion on respiration frequency in Anesthetized cats at a dose of 200 mg/kg at 75 min; assay type: functional
[36] = tested on: Felis catus; assay: Effect of intraperitoneal infusion on respiration frequency in Anesthetized cats at a dose of 200 mg/kg at 18 0 min; assay type: functional
[37] = organism: Cavia porcellus; assay: Chronotropic activity on left and right guinea pig artia (beats/min), at 120 min; assay type: functional
[38] = organism: Cavia porcellus; assay: Chronotropic activity on left and right guinea pig artia (beats/min), at 30 min; assay type: functional
[39] = organism: Cavia porcellus; assay: Chronotropic activity on left and right guinea pig artia (beats/min), at 45 min; assay type: functional
[40] = organism: Cavia porcellus; assay: Effect on guinea pig artia (beats/min), at the a dose of 10e-8 M; assay type: functional
[41] = organism: Oryctolagus cuniculus; assay: Effect on 35 mM K+-induced contraction on rabbit aorta at a dose of 10E-6 mol/L; assay type: functional
[42] = organism: Oryctolagus cuniculus; assay: Effect on 35 mM K+-induced contraction on rabbit aorta at a dose of 10E-7 mol/L; assay type: functional
[43] = organism: Oryctolagus cuniculus; assay: Effect on 35 mM K+-induced contraction on rabbit aorta at a dose of 3*10e-7 mol/L; assay type: functional
[44] = organism: Oryctolagus cuniculus; assay: Effect on 35 mM K+-induced contraction on rabbit aorta at a dose of 3*10e-8 mol/L; assay type: functional
[45] = organism: Oryctolagus cuniculus; assay: Effect on 35 mM K+-induced contraction on rabbit aorta at a dose of 10E-9 mol/L; assay type: functional
[46] = tested on: Felis catus; assay: Effect of intravenous infusion on respiration frequency in Anesthetized cats at a dose of 0 mg/kg at 0 min; assay type: functional
[47] = tested on: Felis catus; assay: Effect of intraperitoneal infusion on systolic pressure in Anesthetized cats at a dose of 200 mg/kg at 105 min; assay type: functional
[48] = tested on: Felis catus; assay: Effect of intravenous infusion on diastolic pressure in Anesthetized cats at a dose of 0.30 mg/kg at 2 min; assay type: functional; conditions: dose 0.3 mg/kg

Compound: CCO/C(O)=C1\C(C)=NC(C)=C(C(=O)OCCN2C(=O)c3ccccc3S2(=O)=O)C1C (configuration not stated)
- Arterial pressure [1]: 138 mmHg
- Arterial pressure [2]: 165 mmHg
- Arterial pressure [3]: 85 mmHg
- Arterial pressure [4]: 80 mmHg
- Arterial pressure [5]: 90 mmHg
- Arterial pressure [6]: 90 mmHg
- Arterial pressure [7]: 160 mmHg
- Arterial pressure [8]: 115 mmHg
- Arterial pressure [9]: 110 mmHg
- Arterial pressure [10]: 162 mmHg
- Arterial pressure [11]: 145 mmHg
- Arterial pressure [12]: 140 mmHg
- Arterial pressure [13]: 130 mmHg
- Arterial pressure [14]: 135 mmHg
- Arterial pressure [15]: 130 mmHg
- Respiratory frequency [16]: 18 r.p.m.
- Respiratory frequency [17]: 18 r.p.m.
- Respiratory frequency [18]: 18 r.p.m.
- Respiratory frequency [19]: 19 r.p.m.
- Cardiac frequency [20]: 259 beats min-1
- Cardiac frequency [21]: 245 beats min-1
- Cardiac frequency [22]: 255 beats min-1
- Cardiac frequency [23]: 190 beats min-1
- Cardiac frequency [24]: 190 beats min-1
- Cardiac frequency [25]: 195 beats min-1
- Cardiac frequency [26]: 210 beats min-1
- Cardiac frequency [27]: 216 beats min-1
- Cardiac frequency [28]: 217 beats min-1
- Respiratory frequency [29]: 12 r.p.m.
- Respiratory frequency [30]: 15 r.p.m.
- Respiratory frequency [31]: 15 r.p.m.
- Arterial pressure [32]: 85 mmHg
- Arterial pressure [33]: 87 mmHg
- Respiratory frequency [34]: 13 r.p.m.
- Respiratory frequency [35]: 12 r.p.m.
- Respiratory frequency [36]: 15 r.p.m.
- Beats/min [37]: 131
- Control [37]: 95.6%
- Beats/min [38]: 138
- Control [38]: 100.7%
- Beats/min [39]: 138
- Control [39]: 100.4%
- Beats/min [40]: 176
- Control [40]: 96.3%
- Inhibition [41]: 48.13%
- Inhibition [42]: 12.6%
- Inhibition [43]: 23.89%
- Inhibition [44]: 0%
- Inhibition [45]: 0%
- Respiratory frequency [46]: 18 r.p.m.
- Arterial pressure [47]: 140 mmHg
- Arterial pressure [48]: 115 mmHg
